Results: ChEMBL document CHEMBL1128962, “Serotoninergic 5-HT3 and 5-HT4 receptor activities of dihydrobenzofuran carboxylic acid derivatives” (Bioorg Med Chem Lett, 1996)

Experiments:
[1] = biological target: T1, 5-hydroxytryptamine receptor 4 (Rattus norvegicus, UniProt Q62758); test: In vitro relaxation of carbachol pre-contracted rat oesophageal TMM.; assay type: functional
[2] = biological target: T2, Serotonin 3 (5-HT3) receptor (Rattus norvegicus, UniProt P35563+Q9JJ16); test: Binding affinity at 5-hydroxytryptamine 3 receptor in rat entorhinal cortex by [3H]BRL-43694 displacement.; assay type: tissue-based
T2 sequence (P35563 whole entry): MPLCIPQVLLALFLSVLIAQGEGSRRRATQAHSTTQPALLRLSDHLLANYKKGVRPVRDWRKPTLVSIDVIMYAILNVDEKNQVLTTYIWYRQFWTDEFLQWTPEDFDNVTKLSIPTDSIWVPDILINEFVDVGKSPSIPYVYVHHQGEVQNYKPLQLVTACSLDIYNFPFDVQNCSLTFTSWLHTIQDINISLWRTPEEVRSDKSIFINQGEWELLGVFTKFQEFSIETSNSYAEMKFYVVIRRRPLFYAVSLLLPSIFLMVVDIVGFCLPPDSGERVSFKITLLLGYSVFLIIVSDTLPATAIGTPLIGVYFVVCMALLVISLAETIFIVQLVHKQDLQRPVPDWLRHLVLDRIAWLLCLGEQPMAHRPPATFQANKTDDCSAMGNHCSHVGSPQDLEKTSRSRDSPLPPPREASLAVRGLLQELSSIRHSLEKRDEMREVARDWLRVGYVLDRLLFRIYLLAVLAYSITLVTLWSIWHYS
T2 sequence (Q9JJ16 whole entry): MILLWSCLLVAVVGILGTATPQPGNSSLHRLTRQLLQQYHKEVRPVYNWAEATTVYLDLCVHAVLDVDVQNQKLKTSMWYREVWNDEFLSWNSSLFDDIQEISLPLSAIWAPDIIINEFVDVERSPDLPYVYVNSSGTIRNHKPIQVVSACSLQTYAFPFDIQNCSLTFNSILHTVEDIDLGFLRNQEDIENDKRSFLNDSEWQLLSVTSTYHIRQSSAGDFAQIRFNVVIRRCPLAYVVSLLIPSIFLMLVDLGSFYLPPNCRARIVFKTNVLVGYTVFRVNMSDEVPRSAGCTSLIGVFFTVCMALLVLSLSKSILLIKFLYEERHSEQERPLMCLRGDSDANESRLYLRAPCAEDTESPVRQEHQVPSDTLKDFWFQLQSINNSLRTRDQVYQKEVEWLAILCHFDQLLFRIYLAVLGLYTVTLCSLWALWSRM

[3] = biological target: T1, 5-hydroxytryptamine receptor 4; test: Binding affinity at 5-hydroxytryptamine 4 receptor in rat striatum by [3H]GR-113808 displacement.; assay type: tissue-based
[4] = biological target: 5-hydroxytryptamine receptor 4 (Rattus norvegicus) (UniProt Q62758); test: In vitro 5-hydroxytryptamine 4 receptor activity by using carbachol-precontracted esophageal tunica muscularis mucosae; No activity up to 104M concentration
5-hydroxytryptamine receptor 4 (Rattus norvegicus), sequence (Q62758 whole entry): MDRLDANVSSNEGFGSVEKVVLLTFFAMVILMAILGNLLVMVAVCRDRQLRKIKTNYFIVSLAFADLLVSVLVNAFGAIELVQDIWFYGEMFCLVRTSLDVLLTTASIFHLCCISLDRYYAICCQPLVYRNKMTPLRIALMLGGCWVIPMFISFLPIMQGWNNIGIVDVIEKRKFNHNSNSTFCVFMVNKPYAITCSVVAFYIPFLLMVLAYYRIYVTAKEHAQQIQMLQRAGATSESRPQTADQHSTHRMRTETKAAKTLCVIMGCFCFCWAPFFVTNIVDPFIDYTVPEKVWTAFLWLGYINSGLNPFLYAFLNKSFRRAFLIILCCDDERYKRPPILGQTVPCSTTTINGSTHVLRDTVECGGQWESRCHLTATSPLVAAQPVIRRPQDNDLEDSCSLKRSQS

[5] = biological target: Serotonin 3 (5-HT3) receptor (Homo sapiens) (UniProt P46098+A5X5Y0+O95264+Q70Z44+Q8WXA8); test: In vitro 5-hydroxytryptamine 3 receptor activity in guinea pig ileum; assay type: tissue-based; conditions: Cavia porcellus, target entry is the homologue from another species
[6] = biological target: 5-hydroxytryptamine receptor 4 (Rattus norvegicus) (UniProt Q62758); test: In vitro 5-hydroxytryptamine 4 receptor activity by using carbachol-precontracted esophageal tunica muscularis mucosae.

T1 sequence (Q62758 whole entry): as above

Structure (SMILES) | EC50 [1] [nM] | Ki [2] [nM] | Ki [3] [nM] | Kb [4] [nM] | Kb [5] [nM] | Kb [6] [nM]
CCCCN1CCC(COC(=O)c2cc(Cl)c(N)c3c2OCC3)CC1 | 1.85 | 250 | 0.13 | – | – | –
Nc1c(Cl)cc(C(=O)OCCCN2CCCCC2)c2c1CCO2 | 7.43 | 1180 | 4.5 | – | – | –
Nc1c(Cl)cc(C(=O)N[C@@H]2CN3CCC2CC3)c2c1CCO2 | 18.6 | 0.1 | 17 | 18.6 | 3.8 | –
Nc1c(Cl)cc(C(=O)NCCN2CCCCC2)c2c1CCO2 | 35.4 | 380 | 41 | – | – | –
CCCC[N+]12CCC(CC1)[C@@H](NC(=O)c1cc(Cl)c(N)c3c1OCC3)C2 | 1360 | 10 | 420 | – | – | –
O=C(N[C@@H]1CN2CCC1CC2)c1cc(Cl)cc2c1OCC2 | > 10000 | 1 | 170 | – | 21.8 | > 100
Nc1c(Cl)cc(C(=O)NCCCN2CCCCC2)c2c1CCO2 | 19.3 | > 10000 | 9.6 | – | – | –
CCN(CC)CCNC(=O)c1cc(Cl)c(N)cc1OC [METOCLOPRAMIDE] | – | 490 | – | – | – | –
O=C(N[C@H]1CN2CCC1CC2)c1cccc2c1OCC2 | > 1000 | 14 | > 10000 | – | – | > 1000
O=C(N[C@H]1CN2CCC1CC2)c1cc(Cl)cc2c1OCC2 | > 1000 | 1 | 280 | – | 38 | > 1000
CCCC[N+]12CCC(CC1)[C@H](NC(=O)c1cc(Cl)c(N)c3c1OCC3)C2 | 8.5 | 73 | 1.9 | – | – | –
Nc1c(Cl)cc(C(=O)N[C@H]2CN3CCC2CC3)c2c1CCO2 | 195 | 1 | 115 | – | 33.9 | –
O=C(N[C@@H]1CN2CCC1CC2)c1cccc2c1OCC2 | > 10000 | 1.4 | > 1000 | – | 40.7 | > 1000
Nc1ccc(C(=O)N[C@@H]2CN3CCC2CC3)c2c1CCO2 | > 10000 | 1 | > 1000 | – | 44.6 | > 100
Nc1ccc(C(=O)N[C@H]2CN3CCC2CC3)c2c1CCO2 | > 1000 | 20 | > 1000 | – | – | > 1000
Nc1c(Cl)cc(C(=O)OCCN2CCCCC2)c2c1CCO2 | 2.02 | 110 | 0.94 | – | – | –
CCCCN1CCC(CNC(=O)c2cc(Cl)c(N)c3c2OCC3)CC1 | 4.49 | 57 | 1.9 | – | – | –
COc1cc(N)c(Cl)cc1C(=O)N[C@@H]1CN2CCC1CC2 | 55.9 | 0.11 | 131 | – | – | –
